Laboratory results: patent US3989837A, “Pharmaceutical compositions” (Chinoin Gyogyszer-es Vegyeszeti Termekek Gyara RT, priority 1972, dated 1976)
Several values for one entry are separate records, joined by “and”; a condition that tells them apart may be missing. Equal entries are not always repeated.

What was measured:
writhing = assay: Analgesic effect, acetic acid writhing (Table 3); format: in vivo, mouse; settings: male mice
Protocol: Male mice weighing 15-18 g. and starved for 16 hours were used for the experiments. The drug was given orally, the control mice obtained a drug-free suspension. After 2 and 4 hours (2^h and 4^h respectively) the animals were injected with […], acetic acid solution (0.1 ml. per mouse) intraperitoneally. Upon the effect of the injection the animals reacted in a few minutes with writhing. […] Comparison of the number of writhes in the control and the treated animals served as a basis of evaluation of drug effect. Significance was calculated by Student's t test, and efficiency of the drug was expressed as per cent. Each experiment was performed on a group of 12-16 animals.

kaolin oedema = assay: Kaolin oedema test (Table 1); format: in vivo, rat; design: oedema, treated: unit not given here; settings: female rats
Protocol: The experiments were performed on female rats weighing 110-130 g. divided into groups of 10 animals. The rats were starved for 24 hours prior to the experiment. The test substance was administered orally, the controls obtained the suspending solution without the active ingredient. 1 hour following drug administration the animals were injected s.c. 0.1 ml. of a suspension of 5% kaolin into the foot pad. During the following period the inflammatory reaction is manifested by a swelling of the foot. The diameter of the foot of the treated and control animals was measured 2, 3.5 and 5 hours after s.c. injection of kaolin. The efficiency of the test compound was calculated from the difference of the diameter of the foot in the treated and control animals. Significance was calculated with Student's t test and the effect of the drug was expressed also as per cent.

mice = assay: Toxicity on mice by oral administration, once daily for 7 days (Table 4); format: in vivo; settings: male mice
Protocol: The experiments were performed on unstarved male mice of […]. body-weight.
The compound was administered in the form of 1% suspension stabilized with methylcellulose. […] The animals obtained the drug once daily over a period of 7 dyas, i.e. 168 hours. The number of deaths was registered each day. LD50 values were calculated according to Litchfield and Wilcoxon.

granuloma formation = assay: Cotton pellet granuloma (Table 2); format: in vivo, rat; settings: male rats, 7 days
Protocol: The experiments were performed on male rats weighing 140-160 g. In ether anaesthesia a […]. cotton pellet was placed in each of two subcutaneous pockets in the dorsal region of the animal. The drug was administered orally during a period of 7 days. The controls received a drugfree suspension. The doses seen in the Table were administered in two portions, in the morning and in the afternoon, respectively. On the 8th day the animals were killed and the pellets were dissected. After removal of fat and extraneous tissue, the pellets were dried for 5 hours at 50° C and weighed. The weight of the cotton pellet before implantation was subtracted from the weight of the dried, dissected pellet and drug efficiency was calculated from the obtained difference. Significance was calculated with Student's t test and drug effect was expressed as per cent.

rats = assay: Toxicity on rats after oral administration, 3 months (Table 2'); format: in vivo, rat; settings: for Perished animals/total animals, Sum / Perished animals/total animals: male rats
Protocol: 10 animals were treated with the substance in question for 3 months. […] A dosage corresponding to 20 mg./kg. of Indomethacine was added during the first, that corresponding to 40 mg./kg. of Indomethacine during the second, and that corresponding to 60 mg./kg. of Indomethacine during the third month. The animals of the control group received suspending agent only.

[1] = oral 13.7 mg./kg., 2 h after kaolin
[2] = oral 13.7 mg./kg., 3.5 h after kaolin
[3] = oral 13.7 mg./kg., 5 h after kaolin
[4] = oral 34 mg./kg., 2 h after kaolin
[5] = oral 34 mg./kg., 3.5 h after kaolin
[6] = oral 34 mg./kg., 5 h after kaolin
[7] = oral 51 mg./kg., 2 h after kaolin
[8] = oral 51 mg./kg., 3.5 h after kaolin
[9] = oral 51 mg./kg., 5 h after kaolin

Compound: COc1ccc2c(c1)c(CC(=O)OCC(Cl)(Cl)Cl)c(C)n2C(=O)c1ccc(Cl)cc1 [Example 5, 1-(p-chlorobenzoyl)-2-methyl-5-methoxy-indol-3-yl-acetic-acid trichloroethyl ester]
- Analgesic effect (writhing; oral 5 mg./kg., 2 h): 29.0% and 20.7%
- number of writhes, treated (writhing; oral 5 mg./kg., 2 h): 28.0±9.5 and 41.1±12.2
- Analgesic effect (writhing; oral 5 mg./kg., 4 h): 18.6% and 20.1%
- number of writhes, treated (writhing; oral 5 mg./kg., 4 h): 32.1±12.4 and 41.4±12.6
- Analgesic effect (writhing; oral 17 mg./kg., 2 h): 60.8% and 51.4%
- Analgesic effect (writhing; oral 17 mg./kg., 4 h): 56.7% and 51.0%
- number of writhes, treated (writhing; oral 17 mg./kg., 4 h): 13.7±10.7 and 20.6±12.3
- Inhibition of kaolin oedema (kaolin oedema; [1]): 9.8% and 10.6%
- oedema, treated (kaolin oedema; [1]): 2.39±0.36 and 2.28±0.50
- Inhibition of kaolin oedema (kaolin oedema; [2]): 15.1% and 19.0%
- oedema, treated (kaolin oedema; [2]): 2.54±0.53 and 2.35±0.54
- Inhibition of kaolin oedema (kaolin oedema; [3]): 22.2% and 15.1%
- oedema, treated (kaolin oedema; [3]): 2.56±0.53 and 2.77±0.58
- Inhibition of kaolin oedema (kaolin oedema; [4]): 11.0% and 13.6%
- oedema, treated (kaolin oedema; [4]): 2.27±0.30 and 2.46±0.49
- Inhibition of kaolin oedema (kaolin oedema; [5]): 22.1%
- oedema, treated (kaolin oedema; [5]): 2.26±0.30 and 2.47±0.41
- Inhibition of kaolin oedema (kaolin oedema; [6]): 24.7% and 29.9%
- oedema, treated (kaolin oedema; [6]): 2.48±0.36 and 2.72±0.62
- Inhibition of kaolin oedema (kaolin oedema; [7]): 19.5%
- oedema, treated (kaolin oedema; [7]): 1.86±0.32
- Inhibition of kaolin oedema (kaolin oedema; [8]): 24.6%
- oedema, treated (kaolin oedema; [8]): 2.05±0.30
- Inhibition of kaolin oedema (kaolin oedema; [9]): 26.4%
- oedema, treated (kaolin oedema; [9]): 2.23±0.28
- Number of deaths/number of treated animals (mice; oral 1000 mg/kg, 24 h): 0/10
- Number of deaths/number of treated animals (mice; oral 1000 mg/kg, 48 h): 0/10
- Number of deaths/number of treated animals (mice; oral 1000 mg/kg, 72 h): 0/10
- Number of deaths/number of treated animals (mice; oral 1000 mg/kg, 96 h): 0/10
- Number of deaths/number of treated animals (mice; oral 1000 mg/kg, 120 h): 0/10
- Number of deaths/number of treated animals (mice; oral 1000 mg/kg, 144 h): 0/10
- Number of deaths/number of treated animals (mice; oral 1000 mg/kg, 168 h): 0/10
- Number of deaths/number of treated animals (mice; oral 1500 mg/kg, 24 h): 0/10
- Number of deaths/number of treated animals (mice; oral 1500 mg/kg, 48 h): 0/10
- Number of deaths/number of treated animals (mice; oral 1500 mg/kg, 72 h): 0/10
- Number of deaths/number of treated animals (mice; oral 1500 mg/kg, 96 h): 0/10
- Number of deaths/number of treated animals (mice; oral 1500 mg/kg, 120 h): 0/10
- Number of deaths/number of treated animals (mice; oral 1500 mg/kg, 144 h): 0/10
- Number of deaths/number of treated animals (mice; oral 1500 mg/kg, 168 h): 0/10
- Number of deaths/number of treated animals (mice; oral 2000 mg/kg, 24 h): 0/10
- Number of deaths/number of treated animals (mice; oral 2000 mg/kg, 48 h): 0/10
- Number of deaths/number of treated animals (mice; oral 2000 mg/kg, 72 h): 2/10
- Number of deaths/number of treated animals (mice; oral 2000 mg/kg, 96 h): 2/10
- Number of deaths/number of treated animals (mice; oral 2000 mg/kg, 120 h): 4/10
- Number of deaths/number of treated animals (mice; oral 2000 mg/kg, 144 h): 6/10
- Number of deaths/number of treated animals (mice; oral 2000 mg/kg, 168 h): 6/10
- Number of deaths/number of treated animals (mice; oral 2500 mg/kg, 24 h): 0/10
- Number of deaths/number of treated animals (mice; oral 2500 mg/kg, 48 h): 1/10
- Number of deaths/number of treated animals (mice; oral 2500 mg/kg, 72 h): 1/10
- Number of deaths/number of treated animals (mice; oral 2500 mg/kg, 96 h): 3/10
- Number of deaths/number of treated animals (mice; oral 2500 mg/kg, 120 h): 4/10
- Number of deaths/number of treated animals (mice; oral 2500 mg/kg, 144 h): 6/10
- Number of deaths/number of treated animals (mice; oral 2500 mg/kg, 168 h): 7/10
- Number of deaths/number of treated animals (mice; oral 3000 mg/kg, 24 h): 0/10
- Number of deaths/number of treated animals (mice; oral 3000 mg/kg, 48 h): 1/10
- Number of deaths/number of treated animals (mice; oral 3000 mg/kg, 72 h): 3/10
- Number of deaths/number of treated animals (mice; oral 3000 mg/kg, 96 h): 4/10
- Number of deaths/number of treated animals (mice; oral 3000 mg/kg, 120 h): 5/10
- Number of deaths/number of treated animals (mice; oral 3000 mg/kg, 144 h): 7/10
- Number of deaths/number of treated animals (mice; oral 3000 mg/kg, 168 h): 7/10
- Inhibition of granuloma formation (granuloma formation; oral 5.5 mg./kg.): 19.5%
- granuloma tissue, treated (granuloma formation; oral 5.5 mg./kg.): 56.7±11.1
- Inhibition of granuloma formation (granuloma formation; oral 11 mg./kg.): 24.8%
- granuloma tissue, treated (granuloma formation; oral 11 mg./kg.): 52.0±17.8
- Perished animals/total animals, Sum (rats; oral 27.3 mg./kg., 1st month): 1/10
- Perished animals/total animals (rats; oral 54.7 mg./kg., 2nd month): 1/9
- Perished animals/total animals, Sum (rats; oral 54.7 mg./kg., through 2nd month): 2/10
- Perished animals/total animals (rats; oral 80.0 mg./kg., 3rd month): 2/8
- Perished animals/total animals, Sum (rats; oral 80.0 mg./kg., through 3rd month): 4/10
- toxicity compared with Indomethacine (rats; rats (and mice), oral): far less toxic than Indomethacine not only on mice but also on rats
- perishment during the observation period compared with Indomethacine (rats; rats, oral, observation period): the same as for Indomethacine
